From US20210060016A1, “ANTICANCER AGENT” (JAPANESE FOUNDATION FOR CANCER RESEARCH, priority 2017, published 2021)

How the values were obtained:
[1] = tested on: human colorectal cancer cell line COLO-320DM; assay: Cell proliferation inhibitory activity test (Celltiter-Glo); type: cell-based; settings: 96 hours, read-out: COLO-320DM (cell proliferation inhibitory activity), G150 rating
Method: The cell proliferation inhibitory activity of the compound, which had been prepared in each of Compound Examples, against the human colorectal cancer cell line COLO-320DM was evaluated by Celltiter-Glo Luminescent Cell Viability Assay (Promega Corporation; G7573). COLO-320DM cells were cultured in RPMI-1640 medium containing 2 mM glutamine (Wako Pure Chemical Industries, Ltd; 189-02025) supplemented with 10% fetal bovine serum. The cultured cells were washed with PBS, and then dissociated with trypsin/EDTA, and a cell solution with 3×10^4 cells/mL was prepared.
Subsequently, the cell solution was seeded in a 96-well microplate (Thermo/Nunc Company; 136101) in an amount of 70 μL per well, and cultured overnight under the condition of 37° C. and 5% COz. The next day, a test compound solution obtained by diluting the test compound (DMSO solution) with a cell culture medium (final concentration of DMSO was 1%) was added in an amount of 10 μL per well, and the mixture was reacted under the condition of 37° C. and 5% CO2 for 96 hours (a 1% DMSO solution was used as a control). Thereafter, a Celltiter-Glo Luminescent Cell Viability Assay reagent was added (Promega Corporation; G7573) in an amount of 80 μL per well, the mixture was stirred with a shaker for 2 minutes while light was blocked with an aluminum foil, and the mixture was incubated at room temperature for 10 minutes.
Thereafter, a luminescence signal was measured with a luminometer (Biotech Company; Synergy). The ratio of cell proliferation in each compound addition group to cell proliferation in a control group containing no test compound solution, where cell proliferation in the control group is 100%, was determined, and the value of a compound concentration necessary for suppressing the amount of residual cells to 50% of that in the control (G150) was calculated as the cell proliferation inhibitory activity. For the COLO-320DM (cell proliferation inhibitory activity against COLO-320DM) of each test compound as measured through the above-mentioned method, a test compound having a G150 value of less than 1 μM was rated “A”, a test compound having a G150 value of 1 μM or more and less than 10 μM was rated “B”, a test compound having a G150 value of 10 μM or more was rated “C”, and an unevaluated test compound was designated as “NT”.

tankyrase 2 = molecular target: T1, tankyrase 2 (Homo sapiens, UniProt Q9H2K2); assay: Tankyrase inhibitory activity test (ELISA, auto-poly(ADP-ribosyl)ation), TNKS2; type: biochemical; settings: Flag-tagged tankyrase 2 (ANK5+SAM+PARP), read-out: TNKS2 (inhibitory activity against tankyrase 2), IC50 rating
T1 construct: tankyrase 2 (613-1, 116aa, ANK5+SAM+PARP); made in house; host or cells: cell-free protein expression system
Method: (§1) The enzymatic activity of tankyrase 1 and the enzymatic activity of tankyrase 2 were measured by the ELISA method based on assessment of auto-poly(ADP-ribosyl)ation to evaluate the tankyrase inhibitory activity of the compound prepared in each of Compound Examples (test compound) (inhibitory activity against tankyrase 1 (TNKS1) and inhibitory activity against tankyrase 2 (TNKS2)). First, Flag-tagged tankyrase 1 (1,024-1, 327aa, SAM+PARP) and tankyrase 2 (613-1, 116aa, ANK5+SAM+PARP) were synthesized with a cell-free protein expression system, and diluted with a Tris buffer solution (50 mM Tris-HCl (pH 8.0), 150 mM NaCl, 10% glycerol). 50 μL of the diluted tankyrase 1 or tankyrase 2 was added to a plate with an anti-FLAG M2 monoclonal antibody immobilized thereon (Anti-FLAG High-Sensitivity M2-Coated Plate) (Sigma-Aldrich), and the mixture was left to stand overnight at 4° C. Thereafter, the plate was washed four times with a PBS (PBST) buffer containing 0.1% TritonX-100.
(§2) Subsequently, the test compound diluted with an assay buffer (50 mM Tris-HCl (pH 8.0), 4 mM MgCl2, 0.2 mM DTT) (DMSO was used as a control) was added to each well of the plate, and the mixture was left to stand at room temperature for 10 minutes. Thereafter, a biotin-labeled NAD solution (225 μM NAD, 25 μM 6-Biotin-17-NAD (Travigen, Inc.)) was added and mixed as a donor substrate, and the mixture was reacted at 30° C. for 45 minutes. To blank wells was added distilled water instead of the biotin-labeled NAD solution. After the reaction, the plate was washed with a PBST buffer four times. Thereafter, HRP (horseradish peroxidase)-labeled streptavidin (Travigen, Inc.) was diluted with a PBS buffer by 1,000 times, and added to each well, and the mixture was reacted at room temperature for 20 minutes. The plate was washed with a PBST buffer four times, a chemiluminescent substrate solution TACS-Sapphire (Travigen, Inc.) was then added to each well, the mixture was reacted at room temperature for 20 minutes, and thechemiluminescence intensity was measured using a chemiluminescence measuring apparatus.
(§3) The residual enzymatic activity in the presence of the test compound was determined from the following expression. On the basis of the residual enzymatic activity at each of multiple concentrations of the test compound, the enzyme inhibitory activity was calculated in terms of a 50%-inhibition concentration (IC50 value) using data analysis software Origin (LightStone Corp.). Residual activity (%)={(chemiluminescence intensity with test compound added)−(chemiluminescence intensity of blank)}/{(chemiluminescence intensity of control)−(chemiluminescence intensity of blank))

tankyrase 1 = molecular target: T2, tankyrase 1 (Homo sapiens, UniProt O95271); assay: Tankyrase inhibitory activity test (ELISA, auto-poly(ADP-ribosyl)ation), TNKS1; type: biochemical; settings: Flag-tagged tankyrase 1 (SAM+PARP), read-out: TNKS1 (inhibitory activity against tankyrase 1), IC50 rating
T2 construct: tankyrase 1 (1,024-1, 327aa, SAM+PARP); made in house; host or cells: cell-free protein expression system
Method: as §1, §2, §3

T2 sequence (O95271 1024-1327): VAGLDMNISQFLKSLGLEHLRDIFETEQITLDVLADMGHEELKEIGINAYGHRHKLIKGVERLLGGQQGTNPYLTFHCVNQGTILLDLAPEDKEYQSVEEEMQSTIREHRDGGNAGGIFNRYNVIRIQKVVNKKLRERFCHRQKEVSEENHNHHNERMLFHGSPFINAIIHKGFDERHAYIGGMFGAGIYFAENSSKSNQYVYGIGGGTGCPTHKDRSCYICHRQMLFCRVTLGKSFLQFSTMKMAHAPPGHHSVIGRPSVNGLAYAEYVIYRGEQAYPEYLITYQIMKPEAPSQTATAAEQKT
T1 sequence (Q9H2K2 613-1166): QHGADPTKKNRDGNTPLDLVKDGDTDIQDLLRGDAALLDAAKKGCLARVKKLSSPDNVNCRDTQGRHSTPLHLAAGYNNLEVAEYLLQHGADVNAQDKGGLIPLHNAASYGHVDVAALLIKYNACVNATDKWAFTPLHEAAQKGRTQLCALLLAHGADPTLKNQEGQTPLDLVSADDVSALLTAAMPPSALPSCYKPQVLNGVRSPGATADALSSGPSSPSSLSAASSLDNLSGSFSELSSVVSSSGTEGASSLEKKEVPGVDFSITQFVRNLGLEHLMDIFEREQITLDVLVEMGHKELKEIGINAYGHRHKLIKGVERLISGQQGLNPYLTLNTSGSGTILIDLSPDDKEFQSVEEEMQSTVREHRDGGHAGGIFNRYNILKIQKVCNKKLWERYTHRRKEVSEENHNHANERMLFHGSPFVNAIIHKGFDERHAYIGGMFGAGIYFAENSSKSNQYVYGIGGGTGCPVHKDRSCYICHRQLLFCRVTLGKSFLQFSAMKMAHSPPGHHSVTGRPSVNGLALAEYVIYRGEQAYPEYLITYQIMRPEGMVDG

Row | IC50 [1] | IC50 (tankyrase 2) | IC50 (tankyrase 1) | SMILES
1 | 1 to 10 µM | < 0.02 µM | < 0.02 µM | CN1c2ccccc2C(=O)NC1c1c[nH]nc1-c1cccc(F)c1 (stereo not drawn) [Compound Example 102, 2-[3-(3-Fluorophenyl)-1H-pirazol-4-yl]-1-methyl-2,3-dihydroquinazolin-4-one]
2 | 1 to 10 µM | < 0.02 µM | < 0.02 µM | CCOc1ccc(-c2n[nH]cc2C2NC(=O)c3cccc(C)c3N2)cc1 (stereo not drawn) [Compound Example 103, 2-[5-(4-Ethoxyphenyl)-1H-pyrazol-4-yl]-8-methyl-2,3-dihydro-1H-quinazolin-4-one]
3 | 1 to 10 µM | < 0.02 µM | < 0.02 µM | COc1ccc(-c2n[nH]nc2C2NC(=O)c3ccccc3N2C)cc1 (stereo not drawn) [Compound Example 104, 2-[5-(4-Methoxyphenyl)-2H-1,2,3-triazol-4-yl]-1-methyl-2,3-dihydroquinazolin-4-one]
4 | < 1 µM | < 0.02 µM | < 0.02 µM | COc1ccc(-c2n[nH]nc2C2NC(=O)c3cccc(C)c3N2)cc1 (stereo not drawn) [Compound Example 105, 2-[5-(4-Methoxyphenyl)-2H-1,2,3-triazol-4-yl]-8-methyl-2,3-dihydro-1H-quinazolin-4-one]
5 | 1 to 10 µM | < 0.02 µM | < 0.02 µM | COc1ccc(-c2n[nH]nc2C2NC(=O)c3cccc4c3N2CC4)cc1 (stereo not drawn) [Compound Example 106, 11-[5-(4-Methoxyphenyl)-2H-1,2,3-triazol-4-yl]-1,10-diazatricyclo[6.3.1.0^4,12]dodeca-4(12),5,7-trien-9-one]
6 | < 1 µM | < 0.02 µM | < 0.02 µM | [2H]C([2H])([2H])Oc1ccc(-c2n[nH]nc2C2NC(=O)c3cccc(C)c3N2)cc1 (stereo not drawn) [Compound Example 107, 8-Methyl-2-[5-(4-(trideuteriomethoxy)phenyl)-2H-1,2,3-triazol-4-yl]-2,3-dihydro-1H-quinazolin-4-one]
7 | 1 to 10 µM | < 0.02 µM | < 0.02 µM | Cc1cccc2c1NC(c1n[nH]nc1-c1ccc(OCC(F)F)cc1)NC2=O (stereo not drawn) [Compound Example 108, 2-[4-[4-(2,2-Difluoroethoxy)phenyl]-2H-1,2,3-triazol-5-yl]-8-methyl-2,3-dihydro-1H-quinazolin-4-one]
8 | ≥ 10 µM | < 0.02 µM | < 0.02 µM | COc1ccc(-c2n[nH]cc2C2NC(=O)c3ccccc3N2C)cc1 (stereo not drawn) [Compound Example 109, 2-[5-(4-Methoxyphenyl)-1H-pyrazol-4-yl]-1-methyl-2,3-dihydroquinazolin-4-one]
9 | 1 to 10 µM | < 0.02 µM | < 0.02 µM | O=c1[nH]c(N2CCC3(CC2)CN(CCO)c2cc(F)cc(F)c23)nc2c1CCCC2 [Example 1]
10 | < 1 µM |  |  | COc1cc(F)c2c(c1)N(CCO)C(=O)C21CCN(c2nc3c(c(=O)[nH]2)CCCN3C)CC1 [Example 2]
11 | < 1 µM |  |  | CN1CCCc2c1nc(N1CCC3(CC1)C(=O)N(CC#N)c1cc(F)cc(F)c13)[nH]c2=O [Example 3]
12 | < 1 µM |  |  | COc1cc(F)c2c(c1)N(CC#N)C(=O)C21CCN(c2nc3c(c(=O)[nH]2)CCCN3C)CC1 [Example 4]
13 | < 1 µM |  |  | CN1CCN(c2cc(F)c3c(c2)N(C)C(=O)C32CCN(c3nc4c(c(=O)[nH]3)CCCN4C)CC2)CC1 [Example 5]
14 | < 1 µM |  |  | CN1CCCc2c1nc(N1CCC3(CC1)C(=O)N(C)c1cc(OCC4COC4)cc(F)c13)[nH]c2=O [Example 6]
15 | < 1 µM |  |  | CN1CCCc2c1nc(N1CCC3(CC1)C(=O)N(C)c1cc(OC4CCOCC4)cc(F)c13)[nH]c2=O [Example 7]
16 | < 1 µM |  |  | CN1CCN(CCOc2cc(F)c3c(c2)N(CC(F)(F)F)C(=O)C32CCN(c3nc4c(c(=O)[nH]3)CCCN4C)CC2)CC1 [Example 8]
17 | < 1 µM | < 0.02 µM | < 0.02 µM | CN1CCCc2c1nc(N1CCC3(CC1)C(=O)N(CC(F)(F)F)c1cc(OCC(=O)O)cc(F)c13)[nH]c2=O [Example 9]
18 | < 1 µM |  |  | CN1CCCc2c1nc(N1CCC3(CC1)C(=O)N(CC(F)(F)F)c1cc(OCc4nnn[nH]4)cc(F)c13)[nH]c2=O [Example 10]
19 | < 1 µM |  |  | CN1CCCc2c1nc(N1CCC3(CC1)C(=O)N(C)c1cc(N4CCC(C(=O)O)CC4)cc(F)c13)[nH]c2=O [Example 11]
20 | < 1 µM |  |  | CN1CCCc2c1nc(N1CCC3(CC1)C(=O)N(C)c1cc(N4CC(C(=O)O)C4)cc(F)c13)[nH]c2=O [Example 12]
21 | < 1 µM |  |  | CN1CCCc2c(O)nc(N3CCC4(CC3)C(=O)N(CC(C)(C)O)c3cccc(F)c34)nc21 [Example 15]
22 | < 1 µM |  |  | CN1CCCc2c(O)nc(N3CCC4(CC3)OC(=O)c3cc(-c5cnn(C)c5)cc(F)c34)nc21 [Example 16]
23 | < 1 µM |  |  | CN1CCCc2c1nc(N1CCC3(CC1)C(=O)N(C)c1cc(N4CCN(S(C)(=O)=O)CC4)cc(F)c13)[nH]c2=O [Example 17]
24 | < 1 µM |  |  | COC(=O)N1CCN(c2cc(F)c3c(c2)N(C)C(=O)C32CCN(c3nc4c(c(=O)[nH]3)CCCN4C)CC2)CC1 [Example 18]
25 | < 1 µM |  |  | C[C@@H]1CN(c2cc(F)c3c(c2)N(C)C(=O)C32CCN(c3nc4c(c(=O)[nH]3)CCCN4C)CC2)C[C@H](C)O1 [Example 19]
26 | < 1 µM |  |  | COC1CCN(c2cc(F)c3c(c2)N(C)C(=O)C32CCN(c3nc4c(c(=O)[nH]3)CCCN4C)CC2)CC1 [Example 20]
27 | < 1 µM |  |  | CN1CCCc2c1nc(N1CCC3(CC1)C(=O)N(C)c1cc(N4CCC(C#N)CC4)cc(F)c13)[nH]c2=O [Example 21]
28 | < 1 µM | 0.02 to 0.2 µM | < 0.02 µM | CN1CCCc2c1nc(N1CCC3(CC1)C(=O)N(C)c1cc(C4CCC(O)CC4)cc(F)c13)[nH]c2=O (stereo not drawn) [Example 22]
29 | < 1 µM | < 0.02 µM | < 0.02 µM | C[C@@H]1CN(c2cc(F)c3c(c2)N(C)C(=O)C32CCN(c3nc4c(c(=O)[nH]3)CCCN4)CC2)C[C@H](C)O1 [Example 23]
30 | < 1 µM | < 0.02 µM | < 0.02 µM | C[C@@H]1CN(c2cc(F)c3c(c2)N(CC(F)(F)F)C(=O)C32CCN(c3nc4c(c(=O)[nH]3)CCCN4)CC2)C[C@H](C)O1 [Example 24]

Row | SMILES | IC50 [1] | IC50 (tankyrase 2) | IC50 (tankyrase 1)
31 | CN1CCCc2c1nc(N1CCC3(CC1)C(=O)N(C)c1c(OC4CCOC4)ccc(Cl)c13)[nH]c2=O (stereo not drawn) [Example 13] | < 1 µM | < 0.02 µM | < 0.02 µM
32 | COc1ccc(Cl)c2c1N(CC(C)(C)O)C(=O)C21CCN(c2nc3c(c(=O)[nH]2)CCCN3C)CC1 [Example 14] | < 1 µM |  | 
